Source: the supplement of paper PMC10307832

Columns and labels:
Experiment in all cases: relative viability (nuclei count vs DMSO), 5 days (fraction); higher = more cells survive
Irinotecan + Linsitinib = compound: CCc1c2c(nc3ccc(OC(=O)N4CCC(N5CCCCC5)CC4)cc13)-c1cc3c(c(=O)n1C2)COC(=O)[C@]3(O)CC [Irinotecan] + C[C@]1(O)C[C@@H](c2nc(-c3ccc4ccc(-c5ccccc5)nc4c3)c3c(N)nccn32)C1 [Linsitinib] (partner 1 µM)
Summary of the method: (§1)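 Cells from lung cancer lines were seeded into 1536-well plates and, one day later, dosed by pin tool. Treatments were either a single drug or a fixed dose of an anchor drug with five library-drug doses (not always all listed) in √10 steps. After 5 days, nuclei were stained in a one-step fixation (final 0.05% Triton X-100, 1% formaldehyde, 1 ug/ml Hoechst) and counted on 4× images, and relative viability is the treated-to-vehicle nuclei ratio, as the median of duplicate plates.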

RU-SKI 43 + Tozasertib = compound: CC[C@@H](C)CNCC(=O)N1CCC2=C([C@@H]1COC3=CC=CC(=C3)C)C=CS2 [RU-SKI 43] + Cc1cc(Nc2cc(N3CCN(C)CC3)nc(Sc3ccc(NC(=O)C4CC4)cc3)n2)n[nH]1 [Tozasertib] (partner 0.1 µM)
Summary of the method: as §1

MK-8033 + Phenformin = compound: Cn1cc(-c2cnc3ccc4ccc(CS(=O)(=O)NCc5ccccn5)cc4c(=O)c3c2)cn1 [MK-8033] + N=C(N)NC(=N)NCCc1ccccc1 [Phenformin] (partner 250 µM)
Summary of the method: as §1

RU-SKI 43 + Vorinostat = compound: CC[C@@H](C)CNCC(=O)N1CCC2=C([C@@H]1COC3=CC=CC(=C3)C)C=CS2 [RU-SKI 43] + O=C(CCCCCCC(=O)Nc1ccccc1)NO [Vorinostat] (partner 1 µM)
Summary of the method: as §1

Cell Line	relative viability (Irinotecan + Linsitinib; first compound 0.6325 µM)	relative viability (Irinotecan + Linsitinib; first compound 2 µM)	relative viability (Irinotecan + Linsitinib; first compound 6.325 µM)	relative viability (Irinotecan + Linsitinib; first compound 20 µM)	relative viability (RU-SKI 43 + Tozasertib; first compound 0.1 µM)	relative viability (RU-SKI 43 + Tozasertib; first compound 0.3162 µM)	relative viability (RU-SKI 43 + Tozasertib; first compound 1 µM)	relative viability (RU-SKI 43 + Tozasertib; first compound 3.162 µM)	relative viability (RU-SKI 43 + Tozasertib; first compound 10 µM)	relative viability (MK-8033 + Phenformin; first compound 0.02 µM)	relative viability (MK-8033 + Phenformin; first compound 0.06325 µM)	relative viability (MK-8033 + Phenformin; first compound 0.2 µM)	relative viability (MK-8033 + Phenformin; first compound 0.6325 µM)	relative viability (MK-8033 + Phenformin; first compound 2 µM)	relative viability (RU-SKI 43 + Vorinostat; first compound 0.1 µM)	relative viability (RU-SKI 43 + Vorinostat; first compound 0.3162 µM)	relative viability (RU-SKI 43 + Vorinostat; first compound 1 µM)	relative viability (RU-SKI 43 + Vorinostat; first compound 3.162 µM)	relative viability (RU-SKI 43 + Vorinostat; first compound 10 µM)
HCC-366	0.443	0.152	0.0502	0.0674	0.098	0.0997	0.124	0.132	0.0872	0.725	0.644	0.601	0.618	0.607	0.276	0.493	0.439	0.438	0.328
HCC-827	0.599	0.302	0.241	0.258	0.435	0.523	0.592	0.426	0.368	0.407		0.397	0.424	0.393	0.768	0.81	1.04	0.783	0.885
HOP-62	0.146	0.158	0.138	0.203	0.359	0.371	0.479	0.344	0.287	0.674	0.646	0.631	0.703	0.639	0.563	0.693	0.632	0.724	0.639
IA-LM	0.31	0.393	0.248	0.123											0.795	0.993	0.964	0.978	0.977
LC-2-ad	0.48	0.237	0.179	0.184	0.424	0.442	0.459	0.424	0.405	0.605	0.515		0.592	0.589	0.739	0.738	0.697	0.693	0.633
LCLC-97TM1	0.118	0.189	0.168	0.169	0.26	0.22	0.207	0.21	0.231	0.393	0.433	0.456	0.454	0.439	0.741	0.705	0.823	0.629	0.669
LCLC-103H	0.91	0.352	0.362	0.411	0.411	0.445	0.498	0.501	0.373	0.378	0.334	0.314	0.355	0.396	0.804	0.821	0.855	0.781	0.729
LK-2	0.468	0.529	0.309	0.165	0.186	0.156	0.165	0.181	0.171	0.708		0.326	0.437	0.305	0.294	0.265	0.363	0.301	0.224
LOU-NH91	0.834	0.706	0.431	0.309	0.659	0.646	0.672	0.702	0.6	0.716	0.473	0.717	0.715	0.768	1.01	0.871	1.03	0.979	0.902
LU99A	0.233	0.247	0.224	0.238	0.255	0.234	0.279	0.202	0.227	0.859	0.747	0.773	0.845	0.751	0.476	0.558	0.479	0.447	0.359
LXF-289	0.951	0.414	0.2	0.186	0.229	0.249	0.21	0.2	0.183	0.559	0.504	0.499	0.547	0.538	0.725	0.784	0.796	0.634	0.84
NCI-H522					0.566	0.544	0.581	0.537	0.524	0.645	0.7	0.707	0.54	0.699	0.88	0.803	1.01	0.941	0.932
NCI-H1299	0.721	0.865	0.463	0.266															
NCI-H1563	1.09	1.27	0.969	0.718						0.711	0.669	0.602	0.679	0.642					
NCI-H1623					0.447	0.42	0.71	0.386	0.399	0.578	0.538	0.618	0.507	0.619					
NCI-H1648							0.428	0.484	0.4						0.416	0.572	0.563	0.51	0.754
NCI-H1650					0.381	0.374	0.38	0.427	0.303	0.412	0.285	0.38	0.441	0.399	0.55	0.674	0.523	0.583	0.589
NCI-H1703	0.454	0.916	0.572	0.186															
NCI-H1792	0.613	0.528	0.21	0.107						0.346	0.267		0.282	0.225					
NCI-H2170					0.701	0.953	0.751	0.722	0.701	0.447	0.424	0.374	0.407	0.399	0.831	1.06	0.763	0.843	0.889
NCI-H2342					0.489	0.528	0.502	0.441	0.516	0.55	0.529	0.585	0.594	0.591	0.724		0.718	0.884	0.716
SW 900					0.671	0.553	0.54	0.45	0.512	0.466	0.649	0.603	0.591	0.499	0.36	0.584	0.782	0.621	0.221
